We go through ten molecules from PubChem BioAssay AID1259407 (Chemical Carcinogenesis Research Information System (CCRIS), 2018).

Calls of active or inactive are those of the source. How the calls were made is not given here.

This series has as its system CCRIS mutagenicity, Ames/micronucleus/aberration tests. Nature of the series: CCRIS mutagenicity studies.
Where [1] appears, read: Test System: AMES SALMONELLA TYPHIMURIUM, Strain/Indicator: TA98, Metabolic Activation: NONE, Method: STANDARD PLATE.
Setting [2] is: Test System: AMES SALMONELLA TYPHIMURIUM, Strain/Indicator: TA98, Metabolic Activation: RAT, LIVER, S-9, AROCLOR 1254, Method: STANDARD PLATE.
Where [3] appears, read: Test System: AMES SALMONELLA TYPHIMURIUM, Strain/Indicator: TA100, Metabolic Activation: NONE, Method: STANDARD PLATE.
Where [4] appears, read: Test System: AMES SALMONELLA TYPHIMURIUM, Strain/Indicator: TA100, Metabolic Activation: RAT, LIVER, S-9, AROCLOR 1254, Method: STANDARD PLATE.
Setting [5] is: Test System: AMES SALMONELLA TYPHIMURIUM, Strain/Indicator: TA1535, Metabolic Activation: NONE, Method: STANDARD PLATE.
The mark [6] stands for this setting: Test System: AMES SALMONELLA TYPHIMURIUM, Strain/Indicator: TA1535, Metabolic Activation: RAT, LIVER, S-9, AROCLOR 1254, Method: STANDARD PLATE.
The mark [7] stands for this setting: Test System: AMES SALMONELLA TYPHIMURIUM, Strain/Indicator: TA1537, Metabolic Activation: NONE, Method: STANDARD PLATE.
Where [8] appears, read: Test System: AMES SALMONELLA TYPHIMURIUM, Strain/Indicator: TA1537, Metabolic Activation: RAT, LIVER, S-9, AROCLOR 1254, Method: STANDARD PLATE.
[9] abbreviates: Test System: AMES SALMONELLA TYPHIMURIUM, Strain/Indicator: TA98, Metabolic Activation: RAT, LIVER, S-9, PHENOBARBITAL, Method: STANDARD PLATE.
The mark [10] stands for this setting: Test System: AMES SALMONELLA TYPHIMURIUM, Strain/Indicator: TA102, Metabolic Activation: NONE, Method: STANDARD PLATE.
The mark [11] stands for this setting: Test System: AMES SALMONELLA TYPHIMURIUM, Strain/Indicator: TA102, Metabolic Activation: RAT, LIVER, S-9, PHENOBARBITAL, Method: STANDARD PLATE.
Where [12] appears, read: Test System: AMES SALMONELLA TYPHIMURIUM, Strain/Indicator: TA1535, Metabolic Activation: RAT, LIVER, S-9, PHENOBARBITAL, Method: STANDARD PLATE.
Where [13] appears, read: Test System: AMES SALMONELLA TYPHIMURIUM, Strain/Indicator: TA1537, Metabolic Activation: RAT, LIVER, S-9, PHENOBARBITAL, Method: STANDARD PLATE.

For the molecule `CC[C@H](C)[C@@H]([C@@H](CC(=O)N1CCC[C@H]1[C@H](OC)[C@@H](C)C(=O)N[C@@H](Cc1ccccc1)c1nccs1)OC)N(C)C(=O)[C@@H](NC(=O)[C@H](C(C)C)N(C)C)C(C)C`, the mutagenic call reads like this: (Test System: AMES SALMONELLA TYPHIMURIUM, Strain/Indicator: TA98, Metabolic Activation: HAMSTER, LIVER, S-9, AROCLOR 1254, Method: STANDARD PLATE) “inactive; negative”; under setting [1], “inactive; negative”; under setting [2], “inactive; negative”; (Test System: AMES SALMONELLA TYPHIMURIUM, Strain/Indicator: TA100, Metabolic Activation: HAMSTER, LIVER, S-9, AROCLOR 1254, Method: STANDARD PLATE) “inactive; negative”; under setting [3], “inactive; negative”; under setting [4], “inactive; negative”. For the same molecule, the mutagenic call reads like this: (Test System: AMES SALMONELLA TYPHIMURIUM, Strain/Indicator: TA1535, Metabolic Activation: HAMSTER, LIVER, S-9, AROCLOR 1254, Method: STANDARD PLATE) “inactive; negative”; under setting [5], “inactive; negative”; under setting [6], “inactive; negative”; (Test System: AMES SALMONELLA TYPHIMURIUM, Strain/Indicator: TA1537, Metabolic Activation: HAMSTER, LIVER, S-9, AROCLOR 1254, Method: STANDARD PLATE) “inactive; negative”; under setting [7], “inactive; negative”; under setting [8], “inactive; negative”. Further, the mutagenic call is, setting by setting: (Test System: AMES SALMONELLA TYPHIMURIUM, Strain/Indicator: TA1538, Metabolic Activation: HAMSTER, LIVER, S-9, AROCLOR 1254, Method: STANDARD PLATE) “inactive; negative”; (Test System: AMES SALMONELLA TYPHIMURIUM, Strain/Indicator: TA1538, Metabolic Activation: NONE, Method: STANDARD PLATE) “inactive; negative”; (Test System: AMES SALMONELLA TYPHIMURIUM, Strain/Indicator: TA1538, Metabolic Activation: RAT, LIVER, S-9, AROCLOR 1254, Method: STANDARD PLATE) “inactive; negative”; (Test System: MOUSE LYMPHOMA, Strain/Indicator: L5178Y (TK+/TK-), Metabolic Activation: NONE, Method: SUSPENSION/PLATE) “active; positive. reevaluation of results: inconclusive”; (Test System: MOUSE LYMPHOMA, Strain/Indicator: L5178Y (TK+/TK-), Metabolic Activation: RAT, LIVER, S-9, AROCLOR 1254, Method: SUSPENSION/PLATE) “inactive; negative. reevaluation of results: negative”.
`[Cr]`: the mutagenic call was “active; positive” under setting [1]; “inactive; negative” under setting [9]; “inactive; negative” under setting [10]; “inactive; negative” under setting [11]; “active; positive” under setting [5]; “inactive; negative” under setting [12]. Further, the mutagenic call runs as follows: under setting [7], “inactive; negative”; under setting [13], “inactive; negative”.
In the case of `[Co]`, the mutagenic call (End Point: IN VITRO MICRONUCLEUS, Test System: HUMAN LYMPHOCYTES, Metabolic Activation: NONE) is “active; positive”; the mutagenic call under setting [1] is “active; positive”; the mutagenic call under setting [9] was “inactive; negative”; the mutagenic call under setting [10] is “inactive; negative”; the mutagenic call under setting [11] was “inactive; negative”; the mutagenic call under setting [5] is “inactive; negative”. The mutagenic call was “inactive; negative” under setting [12], “active; positive” under setting [7] and “inactive; negative” under setting [13].
`Cc1ccc(/C=C/c2ccc(N)cc2)cc1`: the mutagenic call was “inactive; negative” (Test System: AMES SALMONELLA TYPHIMURIUM, Strain/Indicator: TA98(1,8-DNP6), Metabolic Activation: NONE, Method: STANDARD PLATE); “active; positive” (Test System: AMES SALMONELLA TYPHIMURIUM, Strain/Indicator: TA98(1,8-DNP6), Metabolic Activation: S-9, Method: STANDARD PLATE); “inactive; negative” under setting [1]; “active; positive” (Test System: AMES SALMONELLA TYPHIMURIUM, Strain/Indicator: TA98, Metabolic Activation: RAT LIVER S9, AROCHLOR, Method: STANDARD PLATE); “active; positive” (Test System: AMES SALMONELLA TYPHIMURIUM, Strain/Indicator: TA98, Metabolic Activation: S-9, Method: STANDARD PLATE); “inactive; negative” under setting [3]. The mutagenic call by setting is: (Test System: AMES SALMONELLA TYPHIMURIUM, Strain/Indicator: TA100, Metabolic Activation: RAT, LIVER, S9, AROCLOR, Method: STANDARD PLATE) “active; positive”; (Test System: AMES SALMONELLA TYPHIMURIUM, Strain/Indicator: TA100, Metabolic Activation: S-9, Method: STANDARD PLATE) “active; positive”.
Turning to `CSCC[C@H](NC(=O)[C@@H](N)Cc1c[nH]c2ccccc12)C(=O)N[C@@H](CC(=O)O)C(=O)N[C@@H](Cc1ccccc1)C(N)=O`, the mutagenic call runs as follows: under setting [1], “inactive; negative”; under setting [2], “inactive; negative”; under setting [3], “inactive; negative”; under setting [4], “inactive; negative”; under setting [5], “inactive; negative”; under setting [6], “inactive; negative”. Further, the mutagenic call under setting [7] is “inactive; negative” and the mutagenic call under setting [8] was “inactive; negative”.
For the molecule `CCCCN(N=O)C(=O)OCC`, the mutagenic call is, setting by setting: (Test System: AMES SALMONELLA TYPHIMURIUM, Strain/Indicator: TA98, Metabolic Activation: RAT, LIVER, S-9, KC500 OR PHENOBARBITAL, Method: LIQUID SUSPENSION) “active; positive”; (Test System: AMES SALMONELLA TYPHIMURIUM, Strain/Indicator: TA100, Metabolic Activation: RAT, LIVER, S-9, KC500 OR PHENOBARBITAL, Method: LIQUID SUSPENSION) “active; positive”.
Consider `CC(=O)O[C@@]1(C)C(=O)OC/C2=C/CN(C)CC[C@@H](OC(=O)[C@]3(C[C@H]1C)O[C@@H]3C)C2=O`, for which the mutagenic call (Test System: UDS RAT HEPATOCYTES, Strain/Indicator: THY INCORP, Metabolic Activation: NONE, Method: AUTORADIOGRAPHY) is “active; positive”.
`ClCc1cccc(CCl)c1`: the mutagenic call under setting [1] is “inactive; negative”.
For the molecule `CCC(C)c1ccc(/C=C/c2ccc(N)cc2)cc1` (stereo not drawn), the mutagenic call is “inactive; negative” under setting [1]; “active; positive” (Test System: AMES SALMONELLA TYPHIMURIUM, Strain/Indicator: TA98, Metabolic Activation: RAT, LIVER, S-9, AROCLOR, Method: STANDARD PLATE); “inactive; negative” under setting [3]; “active; positive” (Test System: AMES SALMONELLA TYPHIMURIUM, Strain/Indicator: TA100, Metabolic Activation: RAT, LIVER, S-9, AROCLOR, Method: STANDARD PLATE).
Turning to `COc1cccc(C(=O)CBr)c1`, the mutagenic call (Test System: AMES SALMONELLA TYPHIMURIUM, Strain/Indicator: TA98, Metabolic Activation: NONE, Method: PREINCUBATION) is “inactive; negative”; the mutagenic call (Test System: AMES SALMONELLA TYPHIMURIUM, Strain/Indicator: TA98, Metabolic Activation: RAT, LIVER, S-9, PCB, Method: PREINCUBATION) is “inactive; negative”; the mutagenic call (Test System: AMES SALMONELLA TYPHIMURIUM, Strain/Indicator: TA100, Metabolic Activation: NONE, Method: PREINCUBATION) is “inactive; negative”; the mutagenic call (Test System: AMES SALMONELLA TYPHIMURIUM, Strain/Indicator: TA100, Metabolic Activation: RAT, LIVER, S-9, PCB, Method: PREINCUBATION) is “inactive; negative”; the mutagenic call (Test System: E. COLI, Strain/Indicator: WP2 UVRA, Metabolic Activation: NONE, Method: PREINCUBATION) was “inactive; negative”.
